Several values for one entry are separate records, joined by “and”; a condition that tells them apart may be missing. Equal values may be shown once.
Experiments:
[1] = Oxipres test (induction period, product protection); type: physicochemical; conditions: for antioxidative boosting (prolonged induction time, less rancidity and reduced acid value), in words: alkanediol in combination with antioxidant (tocopherol) in sunflower oil
Description: To evaluate the influence of 1,2-alkanediols or of 2,3-alkanediols on the antioxidative capacity of antioxidants, two different tests were performed: • (1) Oxipres treatment to simulate product protection; and • (2) Evaluation of reactive oxygen species (ROS) for skin protection.
The following tests were performed with sunflower oil +/− antioxidant and +/− alkanediols. […] Treating it with heat and oxygen triggers and accelerates oxidation easily.
An Oxipres test was performed in order to evaluate the antioxidative capacity of different test samples as described below.
Test procedure: For the evaluation of the antioxidative capacity of the above-described samples, an Oxipres test was conducted. The Oxipres method is bases on oxygen consumption at high temperatures and pressures and allows the determination of oxidative resistance (shelf life) of e.g. oils. The test runs under elevated pressure and temperature, where the process is accelerated. In the Oxipres test the sample is placed inside a hermetically closed iron vessel that is subjected to high oxygen pressures and temperatures of 90 to 120° C. […] The consumption of oxygen results in a pressure drop in the vessel during the test. Higher decrease of pressure indicates more consumption of oxygen and higher oxidation of the test product. Oils with a high degree of unsaturation are most susceptible to autoxidation.
In the test, the antioxidants are oxidized preferentially before the oxidizable fat or oil is oxidized. Thus, the antioxidants protect the fat or oil against oxidation. After this there is a sudden and large consumption of oxygen and the fat becomes rancid. This can be defined by the induction period (IP) in hours. A lower IP correlates with a faster oxidation.
Equipment: The tests were performed with an Oxipres device ex Mikrolab. The instrument is a modification of the bomb method (ASTM D941), which is based on oxidation with oxygen.

[2] = tested on: reactive oxygen species (ROS) on ex vivo skin; test: DCF assay on ex vivo skin biopsies, aqueous/alcoholic (ethanolic) test samples; type: cell-based; conditions: only the vehicle and the alkanediol, no antioxidant
Description: A dichlorofluorescein test (DCF) assay was performed in order to determine the amount of reactive oxygen species (ROS) on ex vivo skin treated with different test samples in a lipophilic or an aqueous/alcoholic system as described below.
DCF assay—assay principle: Ex vivo skin was incubated with 2′,7′-dichlorodihydrofluorescein diacetate at 37° C., 5% CO2. After PBS washing, samples were exposed or not to cumene hydroperoxide. Immediately after exposure, ex vivo skin samples were frozen in liquid nitrogen and 5 μm cryostat sections were made and fixed with acetone to allow the visualisation of fluorescence generated by ROS in cells of the reconstructed skins. […] Green fluorescence was quantified in ex vivo skin using ImageJ software. The depth of immunostaining was measured as follows: green DCFH-DE positive cells were automatically detected using Histolab software and the distance between dermal epidermal junction and the deepest positive cells were measured in each condition. Means were compared using a student's test. […]
The image acquisition was performed by using Olympus BX51 microscope and Olympus DP70 camera. For each skin sample two skin sections have been taken and the related fluorescent images acquired and analyzed. Thus, for each test condition, 12 images have been acquired and analyzed (i.e. 12 data). The analysis of fluorescence has been performed within the dermis area. […]

[3] = tested on: reactive oxygen species (ROS) on monolayer cells; test: DCF assay on monolayer cells (2D); type: cell-based; conditions: 300 μM H2O2, Untreated = 100
Description: A dichlorofluorescein test (DCF) assay was performed in order to determine the amount of reactive oxygen species (ROS) on monolayer cells with different test samples as described below.
DCF assay—assay principle (2D): One procedure to quantify intracellular radicals in a cell model is by using the dichlorofluorescein (DCF) assay. […] By intracellular esterases and oxidation, the nonfluorescent H2DCFDA is converted to the highly fluorescent 2′,7′-dichlorofluorescein (DCF). The nonfluorescent fluorescein (2′,7′-dichlorofluorescein diacetate (DCFH-DA)) passes the cell membranes. In the cytoplasm, it is cleaved by intracellular esterases and cannot leave the cell in this form. The oxidation by intracellularly existing ROS (reactive oxygen species) modifies the molecule so that will become DCF and emits fluorescence. ROS stimulation is done by exposure to 300 μM H2O2 for 1 h.
The determination of the anti-oxidative capacity is performed in 96-well microplates from Nunc (Wiesbaden, Germany) and with the microplate reader “Spark” from Tecan (Crailsheim, Germany). Cells are seeded in a black 96 well microplate with transparent bottom and incubated at 37° C. After 24 h the supernatant is decanted and fresh media with 0.1% FBS is added. Further 24 hours later the supernatant is decanted again and the test samples are added and incubated for 24 h. As a positive control Trolox is always co-tested. 300 μM H2O2 is used as ROS source (1 h exposure) The emitted fluorescence is measured from bottom of well at EX/EM 485/528 nm.
The antioxidative capacity is expressed as relative reduction of the stimulated control, which can be determined by rule of proportion in combination with the control.

[4] = tested on: IL-8 produced and secreted by HaCaT cells; test: Interleukin 8 (IL-8) ELISA; type: cell-based, human; conditions: IL 1-alpha stimulated
Description: Interleukin 8 (IL-8) is increased by various kinds of stress including UV and oxidant stress, which thereby cause the recruitment of inflammatory cells and induces further increase in oxidant stress mediators, making it a key parameter in localized inflammation.
An IL-8 ELISA (enzyme lined immunosorbance assay) was performed in order to determine IL-8 produced and secreted by cells from the cell supernatant utilizing antibodies detecting the IL-8.
Experimental procedure: HaCaT cells (spontaneously transformed aneuploid immortal keratinocyte cell line from adult human skin) were seeded in a black 96 well microplate with transparent bottom and incubated at 37° C. After 24 hours the supernatant is decanted and the test samples (100 μl/well) are added and incubated for 24 hours at 37° C. Then IL 1-alpha (1 ng/ml per 100 μl/well) was added as stimulant. Then the medium was changed (100 μl/well) and incubated at 37° C. After 4 h a 70 μl sample was recovered from the cell supernatant. Thereafter, an IL-8 ELISA is carried out with the cell supernatant sample.
The lower the IL-8 concentration the better the […] effect of the antioxidant of the sample.

[5] = Solubility of alkanediols in water; type: physicochemical; conditions: visual assessment at ambient temperature after 24 h storage at 5° C.
Text: The water solubility of a substance is the saturation mass concentration of the substance in water at a given temperature. The determination of the solubility in water relates to essentially pure substances which are stable in water and not volatile. The determination of the water solubility of the alkanediols is further described in the following Example 7.
For the determination of the maximum water solubility of an alkanediol. water and different concentrations of the respective alkanediol were blended by stirring. […] The determination of whether the alkanediol has dissolved in water is based entirely on visual observation.

[6] = in combination with Ascorbyl Palmitate in sunflower oil
[7] = in combination with Hydroxyacetophenone in sunflower oil

CCCCCCCCC(O)CO (stereo not shown) [1,2-decanediol]
antioxidative boosting (prolonged induction time, less rancidity and reduced acid value), in words [1]: distinguished efficacy for antioxidative boosting

CCCCCC(O)CO (stereo not shown) [1,2-heptanediol]
antioxidative efficacy, in words [2]: do not have an antioxidative efficacy
antioxidative boosting (prolonged induction time, less rancidity and reduced acid value), in words [1]: distinguished efficacy for antioxidative boosting
induction period, in words [1, 6]: remarkably prolonged induction periods
induction period, in words [1, 7]: remarkably prolonged induction periods
Mean, ROS concentration (%) ([3]; 500 μM): 112%
IL-8 concentration ([4]; 500 μM): 959.8 pg/mL and 959.85 pg/mL
Maximum solubility in water [5]: 2.5 % by weight

CCCCCCCC(O)CO (stereo not shown) [1,2-nonediol, 1,2-nonanediol]
antioxidative boosting (prolonged induction time, less rancidity and reduced acid value), in words [1]: distinguished efficacy for antioxidative boosting
Maximum solubility in water [5]: 0.1 % by weight

CCCCC(O)C(C)O (stereo not shown) [2,3-heptanediol]
antioxidative efficacy, in words [2]: do not have an antioxidative efficacy
induction period, in words [1, 6]: remarkably prolonged induction periods
induction period, in words [1, 7]: remarkably prolonged induction periods
Maximum solubility in water [5]: 3.6 % by weight

CCCC(O)C(C)O (stereo not shown) [2,3-hexanediol]
induction period, in words ([1]; sunflower oil, tocopherol series (samples 1-43), versus comparative samples of the series): prolonged induction periods

CCCCCCC(O)C(C)O (stereo not shown) [2,3-nonanediol]
Maximum solubility in water [5]: 0.3 % by weight

CCCCCC(O)C(C)O (stereo not shown) [2,3-octanediol]
antioxidative boosting (prolonged induction time, less rancidity and reduced acid value), in words [1]: distinguished efficacy for antioxidative boosting
Mean, ROS concentration (%) ([3]; 500 μM): 98%
Maximum solubility in water [5]: 1.5 % by weight

NCCC(=O)N[C@@H](Cc1cnc[nH]1)C(=O)O [Carnosine]
Mean, ROS concentration (%) ([3]; 10 mM): 96%

CCCCC(O)CO (stereo not shown) [Hydrolite ® 6]
Maximum solubility in water [5]: 50 % by weight

CCCCCCC(O)CO (stereo not shown) [Hydrolite ® 8]
Maximum solubility in water [5]: 0.5 % by weight

CC1=C(/C=C/C(C)=C/C=C/C(C)=C/C(=O)OCC(=O)C(C)(C)C)C(C)(C)CCC1 [Hydroxypinacolone Retinoate]
Mean, ROS concentration (%) ([3]; 5 μM + 500 μM): 53%

CC1=C(/C=C/C(C)=C/C=C/C(C)=C/CO)C(C)(C)CCC1 [all trans-Retinol, reference compound]
Mean, ROS concentration (%) ([3]; 50 μM): 100%
IL-8 concentration ([4]; 50 μM): 670.8 pg/mL and 670.84 pg/mL

Cc1c(C)c2c(c(C)c1O)CC[C@@](C)(CCC[C@H](C)CCC[C@H](C)CCCC(C)C)O2 [alpha-Tocopherol]
Mean, ROS concentration (%) ([3]; 50 μM): 45%
Mean, ROS concentration (%) ([3]; 100 μM): 58%

N=C(N)NCCC[C@H](NC(=O)C[C@H](N)C(=O)O)C(=O)O [beta-aspartyl arginine]
Mean, ROS concentration (%) ([3]; 10000 μM): 103%

— patent US12303468B2, “Compositions comprising one or more (bio)-alkanediols with antioxidants” (Symrise AG, priority 2020, dated 2025)
